This note sets out measurements from ChEMBL document CHEMBL2429721, “Novel 2,6-bis(4-methoxyphenyl)-1-methylpiperidin-4-one oxime esters: synthesis and a new insight into their antioxidant and antimicrobial potential” (Med Chem Res, 2013).

Type in all cases: functional
Assay [1] concerns Staphylococcus aureus. Nature of the assay: Antibacterial activity against Staphylococcus aureus ATCC 25923 assessed as growth inhibition at 500 ug/mL after 24 hrs by agar well plate method. Particulars: ATCC 25923, 24 h, read-out: DIZ.
Assay [2] can be described thus: Antifungal activity against Chrysosporium keratinophilum MTCC 2827 assessed as growth inhibition at 1000 ug/mL after 72 hrs by agar well plate method.
The subject of assay [3] is Pseudomonas aeruginosa. Description: Antibacterial activity against Pseudomonas aeruginosa ATCC 27853 assessed as growth inhibition at 1000 ug/mL after 24 hrs by agar well plate method. The settings on record: ATCC 27853, 24 h, read-out: DIZ.
In assay [4] the test system is Pseudomonas aeruginosa. Nature of the assay: Antibacterial activity against Pseudomonas aeruginosa ATCC 27853 assessed as growth inhibition at 500 ug/mL after 24 hrs by agar well plate method. Particulars: ATCC 27853, 24 h, read-out: DIZ.
Assay [5] concerns Escherichia coli. Nature of the assay: Antibacterial activity against Escherichia coli ATCC 25922 assessed as growth inhibition at 500 ug/mL after 24 hrs by agar well plate method. The settings on record: ATCC 25922, 24 h, read-out: DIZ.
Assay [6] can be described thus: Antioxidant activity assessed as ABTS free radical scavenging activity after 30 mins.
Assay [7] can be described thus: Antioxidant activity assessed as ferric ion reducing activity at 10 uM after 20 mins by FRAP assay.
For assay [8], the system named is Aspergillus flavus. Nature of the assay: Antifungal activity against Aspergillus flavus MTCC 3306 assessed as growth inhibition at 500 ug/mL after 72 hrs by agar well plate method. The settings on record: MTCC 3306, 72 h, read-out: DIZ.
A short description of assay [9]: Antioxidant activity assessed as cupric ion reducing activity at 10 uM after 30 mins by CUPRAC assay.
The subject of assay [10] is Aspergillus flavus. Nature of the assay: Antifungal activity against Aspergillus flavus MTCC 3306 assessed as growth inhibition at 1000 ug/mL after 72 hrs by agar well plate method. The settings on record: MTCC 3306, 72 h, read-out: DIZ.
The test system of assay [11] is Radical scavenging activity. Description: Antioxidant activity assessed as DPPH free radical scavenging activity after 20 mins by UV-visible spectrophotometric analysis. A general note: The DPPH test is a chemical assay of radical scavenging.
The subject of assay [12] is Staphylococcus aureus. Description: Antibacterial activity against Staphylococcus aureus ATCC 25923 assessed as growth inhibition at 1000 ug/mL after 24 hrs by agar well plate method. The settings on record: ATCC 25923, 24 h, read-out: DIZ.
Assay [13] in a line: Antifungal activity against Chrysosporium keratinophilum MTCC 2827 assessed as growth inhibition at 500 ug/mL after 72 hrs by agar well plate method.
The subject of assay [14] is Escherichia coli. Nature of the assay: Antibacterial activity against Escherichia coli ATCC 25922 assessed as growth inhibition at 1000 ug/mL after 24 hrs by agar well plate method. The settings on record: ATCC 25922, 24 h, read-out: DIZ.
In assay [15] the test system is Candida albicans. Description: Antifungal activity against Candida albicans MTCC 3017 assessed as growth inhibition at 500 ug/mL after 72 hrs by agar well plate method. Particulars: MTCC 3017, 72 h, read-out: DIZ.
Assay [16] relates to Candida albicans. Nature of the assay: Antifungal activity against Candida albicans MTCC 3017 assessed as growth inhibition at 1000 ug/mL after 72 hrs by agar well plate method. Particulars: MTCC 3017, 72 h, read-out: DIZ.

Consider `COc1ccc(C2CC(=NOC(=O)c3cc(O)c(O)c(O)c3)CC(c3ccc(OC)cc3)N2C)cc1` (centres undefined), for which the zone of inhibition at 500 µg/mL is 3 mm in the assay with Staphylococcus aureus [1]; 3 mm with Pseudomonas aeruginosa [4]; 4 mm in the assay on Escherichia coli [5]; 1 mm in the assay on Aspergillus flavus [8]; 6 mm in the assay on Candida albicans [15]. The inhibition zone (IZ) came out at 3 mm in assay [2] and 2 mm in [13]. The zone of inhibition at 1000 µg/mL in the assay on Pseudomonas aeruginosa [3] came out at 4 mm; in the assay on Aspergillus flavus [10], 3 mm; with Staphylococcus aureus [12], 5 mm; in the assay with Escherichia coli [14], 6 mm; with Candida albicans [16], 8 mm. For the same molecule, the IC50 (as a rule, the concentration that inhibits the measured activity by half) in assay [6] amounted to 18 µM; in [11], 11 µM. In addition, the Activity in [7] turned out to be 0.373; in [9], 0.361.
Take `COc1ccc(C2CC(=NOC(=O)c3ccc(Cl)cc3)CC(c3ccc(OC)cc3)N2C)cc1` (centres undefined): the zone of inhibition at 500 µg/mL was found to be 8 mm in the assay on Staphylococcus aureus [1]; 12 mm in the assay on Pseudomonas aeruginosa [4]; 10 mm with Escherichia coli [5]; 5 mm with Aspergillus flavus [8]; 10 mm in the assay on Candida albicans [15]. The inhibition zone (IZ) amounted to 8 mm in assay [2] and 7 mm in assay [13]. In addition, the zone of inhibition at 1000 µg/mL in the assay on Pseudomonas aeruginosa [3] amounted to 16 mm; in the assay on Aspergillus flavus [10], 8 mm; with Staphylococcus aureus [12] it was 12 mm; with Escherichia coli [14], 16 mm; in the assay on Candida albicans [16], 11 mm. Further, the values for the IC50 in [6] and in [11] were 135 µM and 98 µM, respectively. Moreover, the results for the Activity in [7] and in assay [9] were 0.258 and 0.192, respectively.
Take `COc1ccc(C2CC(=NOC(=O)c3ccc(F)cc3)CC(c3ccc(OC)cc3)N2C)cc1` (centres undefined): the zone of inhibition at 500 µg/mL in the assay with Staphylococcus aureus [1] is 9 mm; in the assay on Pseudomonas aeruginosa [4] it was 15 mm; in the assay with Escherichia coli [5], 12 mm; in the assay with Aspergillus flavus [8], 10 mm; in the assay with Candida albicans [15], 10 mm. The results for the inhibition zone (IZ) in assay [2] and in [13] were 9 mm and 7 mm, respectively. The zone of inhibition at 1000 µg/mL in the assay with Pseudomonas aeruginosa [3] came to 19 mm; in the assay with Aspergillus flavus [10], 12 mm; in the assay with Staphylococcus aureus [12] it was 13 mm; with Escherichia coli [14], 17 mm; with Candida albicans [16], 16 mm. Besides, the concentration for half-maximal inhibition (IC50) was found to be 152 µM in assay [6] and 86 µM in assay [11]. Moreover, the Activity is 0.236 in [7] and 0.163 in assay [9].
For the molecule `COc1ccc(C2CC(=NO)CC(c3ccc(OC)cc3)N2C)cc1` (centres undefined), the zone of inhibition at 500 µg/mL stood at 0 mm in the assay with Staphylococcus aureus [1]; 0 mm in the assay with Pseudomonas aeruginosa [4]; 0 mm in the assay with Escherichia coli [5]; 0 mm with Aspergillus flavus [8]; 1 mm in the assay on Candida albicans [15]. The inhibition zone (IZ) in assay [2] and in [13] was 1 mm each time. Besides, the zone of inhibition at 1000 µg/mL in the assay on Pseudomonas aeruginosa [3], in the assay with Aspergillus flavus [10], in the assay with Staphylococcus aureus [12], in the assay with Escherichia coli [14] and with Candida albicans [16] was 1 mm each time. The half-inhibitory concentration (IC50) in assay [6] stood at 380 µM; in assay [11], 165 µM. Besides, the values for the Activity in assay [7] and in assay [9] were 0.127 and 0.164, respectively.
As to `COc1ccc(C2CC(=NOC(=O)c3cc([N+](=O)[O-])cc([N+](=O)[O-])c3)CC(c3ccc(OC)cc3)N2C)cc1` (centres undefined), the zone of inhibition at 500 µg/mL turned out to be 3 mm in the assay on Staphylococcus aureus [1]; 6 mm in the assay on Pseudomonas aeruginosa [4]; 4 mm in the assay with Escherichia coli [5]; 3 mm in the assay with Aspergillus flavus [8]; 3 mm with Candida albicans [15]. Moreover, the inhibition zone (IZ) in [2] and in assay [13] was 5 mm throughout. Besides, the zone of inhibition at 1000 µg/mL with Pseudomonas aeruginosa [3] stood at 9 mm; in the assay on Aspergillus flavus [10], 4 mm; with Staphylococcus aureus [12], 6 mm; with Escherichia coli [14] it was 9 mm; in the assay with Candida albicans [16], 8 mm. In addition, the IC50 in assay [6] was determined as 312 µM; in [11], 125 µM. The Activity in assay [7] came to 0.195; in [9], 0.145.
`COc1ccc(C2CC(=NOC(=O)c3ccccc3O)CC(c3ccc(OC)cc3)N2C)cc1` (centres undefined): the zone of inhibition at 500 µg/mL in the assay on Staphylococcus aureus [1] came out at 4 mm; in the assay with Pseudomonas aeruginosa [4], 3 mm; in the assay on Escherichia coli [5], 3 mm; in the assay with Aspergillus flavus [8], 2 mm; in the assay on Candida albicans [15], 2 mm. For the same molecule, the inhibition zone (IZ) in assay [2] is 5 mm; in assay [13] it was 3 mm. Further, the zone of inhibition at 1000 µg/mL in the assay with Pseudomonas aeruginosa [3] was determined as 4 mm; in the assay with Aspergillus flavus [10], 3 mm; in the assay with Staphylococcus aureus [12], 4 mm; in the assay with Escherichia coli [14], 5 mm; in the assay with Candida albicans [16], 6 mm. Further, the half-inhibitory concentration (IC50) is 29 µM in assay [6] and 19 µM in assay [11]. For the same molecule, the Activity was determined as 0.33 in assay [7] and 0.272 in [9].
`COc1ccc(C2CC(=NOC(=O)c3cccc(Cl)c3)CC(c3ccc(OC)cc3)N2C)cc1` (centres undefined): the zone of inhibition at 500 µg/mL was 7 mm in the assay with Staphylococcus aureus [1]; 8 mm with Pseudomonas aeruginosa [4]; 7 mm in the assay with Escherichia coli [5]; 6 mm with Aspergillus flavus [8]; 7 mm in the assay on Candida albicans [15]. Moreover, the inhibition zone (IZ) is 7 mm in assay [2] and 5 mm in assay [13]. For the same molecule, the zone of inhibition at 1000 µg/mL stood at 11 mm with Pseudomonas aeruginosa [3]; 7 mm with Aspergillus flavus [10]; 9 mm in the assay on Staphylococcus aureus [12]; 12 mm in the assay on Escherichia coli [14]; 10 mm with Candida albicans [16]. Further, the IC50 in [6] was 136 µM; in [11], 186 µM. Also, the Activity in assay [7] is 0.243; in assay [9], 0.179.
With `COc1ccc(C2CC(=NOC(=O)c3ccc(C)cc3)CC(c3ccc(OC)cc3)N2C)cc1` (centres undefined), the zone of inhibition at 500 µg/mL was 1 mm with Staphylococcus aureus [1]; 2 mm with Pseudomonas aeruginosa [4]; 1 mm in the assay with Escherichia coli [5]; 1 mm in the assay on Aspergillus flavus [8]; 1 mm with Candida albicans [15]. Further, the values for the inhibition zone (IZ) in assay [2] and in assay [13] were 1 mm and 2 mm, respectively. Moreover, the zone of inhibition at 1000 µg/mL in the assay on Pseudomonas aeruginosa [3] is 2 mm; with Aspergillus flavus [10], 2 mm; in the assay with Staphylococcus aureus [12], 3 mm; with Escherichia coli [14], 3 mm; in the assay on Candida albicans [16] it was 2 mm. In addition, the figures for the half-maximal inhibitory concentration (IC50) in [6] and in [11] were 368 µM and 143 µM, respectively. The Activity in assay [7] is 0.154; in [9] it was 0.127.
Turning to `COc1ccc(C2CC(=NOC(=O)c3ccccc3OC(C)=O)CC(c3ccc(OC)cc3)N2C)cc1` (centres undefined), the zone of inhibition at 500 µg/mL amounted to 2 mm in the assay on Staphylococcus aureus [1]; 4 mm in the assay on Pseudomonas aeruginosa [4]; 2 mm in the assay on Escherichia coli [5]; 1 mm in the assay on Aspergillus flavus [8]; 5 mm in the assay with Candida albicans [15]. Also, the figures for the inhibition zone (IZ) in [2] and in assay [13] were 3 mm and 2 mm, respectively. Further, the zone of inhibition at 1000 µg/mL with Pseudomonas aeruginosa [3] stood at 5 mm; in the assay with Aspergillus flavus [10] it was 2 mm; in the assay on Staphylococcus aureus [12], 5 mm; with Escherichia coli [14], 4 mm; in the assay with Candida albicans [16], 4 mm. The 50% inhibitory concentration (IC50) in assay [6] was found to be 350 µM; in assay [11], 132 µM. Also, the Activity was determined as 0.179 in assay [7] and 0.131 in assay [9].
